Reference: patent US7749976B2, “Isolated PTPMT1 protein which mediates insulin production and uses thereof” (The Regents of the University of California, priority 2005, dated 2010)

How the values were obtained:
Type in all cases: cell-based, rat
PTPMT1 = test: Knockdown of PTPMT1 expression (immunoblot); conditions: Amaxa nucleoporation, INS-1 832/13 cells
Method: (§1) PTPMT1 expression in INS-1 832/13 cells was knocked down using 200 pmol of Ambion siRNA (sense: 5′-GUCUGUGGAUGACAAAGAAtt-3′ (SEQ ID NO:3), antisense: UUCUUUGUCAUCCACAGACtt-3′ (SEQ ID NO:4)) in an Amaxa nucleoporator with buffer T on program T-20, according to the manufacturer's protocol. Approximately 72 hrs post siRNA treatment, cells were treated as outlined in the text, pelleted and lysed in 2% TCA via sonication and/or vortexing. Precipitates were pelleted at 13,200 rpm for 2 minutes. The supernatant was removed, neutralized with 0.5 M Tris pH 7.4, and analyzed for ATP using Promega's ENLITEN luciferase bioluminescence reagent at an appropriate dilution. All ATP measurements were normalized to protein levels, as measured by the BCA method (Pierce). ADP levels were determined by converting ADP to ATP with pyruvate kinase, remeasuring ATP by the above assay, and subtracting the initial ATP readings, as reported (Gorman et al., 2003).
FIG. 10 illustrates that PTPMT1 is involved in the regulation of mitochondrial ATP production. […] In C whole cell ADP was measured as above.
To simultaneously assess the effect that knockdown of PTPMT1 has on mitochondrial phosphoproteins and PI(5)P levels, its expression was knocked-down in a large quantity of INS-1 832/13 cells using adenovirus-delivered siRNA. […]

INS-1 832/13 cells [1] = test: Glucose-stimulated insulin secretion assay; conditions: basal (3 mM) and glucose stimulated (15 mM) conditions, out to 120 min
Method: INS-1 832/13 cells (5×10^6 per reaction) were electroporated as above, and split between 4 wells of a 12-well plate. After 72 hours, cells were washed once with low glucose (3 mM) standard assay buffer (SAB: 114 mM NaCl, 4.7 mM KCl, 1.2 mM KH2PO4, 1.16 mM MgSO4, 20 mM HEPES pH 7.2, 25.5 mM NaHCO3, 10 mM CaCl2, 0.2% BSA), and then preincubated for 2 hours in fresh low glucose SAB. After preincubation, 1 mL of low or high (15 mM) glucose SAB was added to each well. At the end of the incubation time, the SAB was removed and saved, and the cells were washed once in PBS, and lysed by freezing and thawing in a Tris-EDTA solution (20 mM Tris pH 7.4, 20 mM EDTA pH 8.0, 10 mM DTT, protease inhibitors). A Bio-Rad protein assay was performed on each lysate sample to standardize the insulin assay results for protein. The ^125I-insulin Coat-A-Count RIA (Diagnostic Products Corp.) was used to assay SAB samples for insulin content.
To test this, INS-1 832/13 cells were again treated with luciferase (control) or PTPMT1 siRNA. Seventy-two hours post siRNA treatment, cells were washed with PBS, and incubated in media containing 3 mM glucose for 2 hrs to normalize insulin release. Fresh media containing either 3 mM (low) or 15 mM (high) glucose media was then added to the cells and insulin secretion analyzed out to 120 min. […]

INS-1 832/13 cells [2] = test: ATP and ADP assays in siRNA-treated INS-1 832/13 cells
Method: as §1
Given PTPMT1's likely juxtaposition with members of the respiratory chain on the inner mitochondrial membrane, assessment of PTPMT1's endogenous function was carried out by measuring its effect on cellular ATP levels. […] Seventy-two hours post siRNA treatment, cells were washed and incubated in a 3.0 mM glucose medium for 2 hr. Cells were then lysed and ATP levels analyzed using a luciferase based luminometry reaction. Strikingly, knockdown of PTPMT1 expression increased ATP levels by an average of 82% over control cells across three separate experiments (FIG. 10B). […] ATP/ADP ratio (FIG. 10C). […] AMPK serves as a sensor of cellular energy status, becoming dephosphorylated (inactivated) when the cellular AMP:ATP ratio decreases. Consistent with the above data, AMPK is more highly phosphorylated in the control cells following the above incubation in low glucose (FIG. 10D). Thus, knockdown of PTPMT1 results in a true increase in cellular energy status, as opposed to merely a general increase in the cellular adenine pool.

PTPMT1 siRNA: Ambion siRNA sense 5′-GUCUGUGGAUGACAAAGAAtt-3′ (SEQ ID NO:3), antisense UUCUUUGUCAUCCACAGACtt-3′ (SEQ ID NO:4) (sense GUCUGUGGAUGACAAAGAATT; antisense UUCUUUGUCAUCCACAGACTT; chemistry not given here)
Endogenous PTPMT1 expression (PTPMT1): highly effective at ablating endogenous PTPMT1 expression
Insulin secretion versus control (INS-1 832/13 cells [1]): increased insulin secretion at nearly all time points
Increase in ATP levels over control cells (INS-1 832/13 cells [2]; 72 h post siRNA, 2 hr in 3.0 mM glucose, average of three experiments): 82%
ADP levels versus control (INS-1 832/13 cells [2]; 72 h post siRNA, low glucose 2 h): Very little, if any, difference
ATP levels versus control with FCCP (INS-1 832/13 cells [2]; same buffer containing 10 μM FCCP): no difference in ATP levels
